A short description of data set [1]: Incorporation and retention of a hydrophobic substance in the hydrogel on addition of water and washing with water. As to conditions: acetone solution, water added. The data set is classed as physicochemical. On the procedure:
1 g of copolymer of Example 1.3 and 5 mg of commercial colorant Yellow OB are dissolved in 2 cm^3 of acetone.
This is a very hydrophobic, water-insoluble colorant. Distilled water (4 cm^3) is gradually added. A gel is obtained which occupies virtually all the volume of the starting acetone solution.
Hydrogels in which progesterone is incorporated were prepared in an analogous way. […] When administered by subcutaneous injection, the gel constitutes a bioresorbable soft implant which gradually releases the progesterone.

For data set [2] the following is noted: as described for the commercial colorant; cited from earlier work.

Regarding `Cc1ccccc1N=Nc1c(N)ccc2ccccc12` [Yellow OB], in data set [1], the “crystallisation / precipitation of the hydrophobic substance on addition of water or washing” value is on record as “the colorant crystallizes during the addition of water”. In addition, the “solubility of the colorant in water” value in data set [2] is recorded as “water-insoluble”.

The record behind these values is patent US6350812B1, “Hydrogels containing triblock copolymers, and preparation and use thereof” (Centre National de la Recherche Scientifique (CNRS), priority 1995, dated 2002).
